Experimental data reported in ChEMBL document CHEMBL6074677, “Development of dual V1a/V2 antagonists containing triazolobenzazepine scaffold” (Eur J Med Chem, 2025).

Assays:
[1] = target: T1, Vasopressin V1a receptor (Homo sapiens, UniProt P37288); assay: Displacement of [3H]AVP from human vasopressin V1a receptor expressed in human 1321N1 cells assessed as inhibition constant; type: cell-based
[2] = Metabolic stability in human liver microsomes assessed as intrinsic clearance at 1 uM in presence of NADPH; type: ADME, Microsome; settings: read-out: CLH
[3] = target: Vasopressin V2 receptor (Homo sapiens, UniProt P30518); assay: Displacement of [3H]AVP from human vasopressin V2 receptor expressed in human 1321N1 cells assessed as inhibition constant; type: cell-based
Vasopressin V2 receptor, sequence (P30518 whole entry): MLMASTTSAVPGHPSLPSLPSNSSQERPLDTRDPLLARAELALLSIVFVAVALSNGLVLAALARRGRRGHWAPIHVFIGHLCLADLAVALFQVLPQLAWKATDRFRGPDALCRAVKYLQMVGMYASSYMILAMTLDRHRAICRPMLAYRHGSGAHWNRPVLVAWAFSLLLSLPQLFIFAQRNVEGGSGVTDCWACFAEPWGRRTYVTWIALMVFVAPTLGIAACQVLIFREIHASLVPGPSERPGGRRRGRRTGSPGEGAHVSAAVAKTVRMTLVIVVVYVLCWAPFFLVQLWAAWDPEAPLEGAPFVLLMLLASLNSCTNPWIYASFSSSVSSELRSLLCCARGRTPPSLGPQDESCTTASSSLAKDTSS

[4] = Metabolic stability in rat liver microsomes assessed as intrinsic clearance at 1 uM in presence of NADPH; type: ADME, Microsome; settings: read-out: CLH
[5] = Metabolic stability in mouse liver microsomes assessed as intrinsic clearance at 1 uM in presence of NADPH; type: ADME, Microsome; settings: read-out: CLH
[6] = Apparent permeability across apical to basolateral side in vinblastine treated human Caco-2 cells incubated for 15 to 60 mins by HPLC analysis; type: ADME, cell-based; settings: time 15-60 min
[7] = target: Voltage-gated inwardly rectifying potassium channel KCNH2 (Homo sapiens, UniProt Q12809); assay: Inhibition of human ERG expressed in CHO cells at -80 mV holding potential measured for 7 to 10 mins by automated patch clamp method; type: toxicity, cell-based
Voltage-gated inwardly rectifying potassium channel KCNH2, sequence (Q12809 whole entry): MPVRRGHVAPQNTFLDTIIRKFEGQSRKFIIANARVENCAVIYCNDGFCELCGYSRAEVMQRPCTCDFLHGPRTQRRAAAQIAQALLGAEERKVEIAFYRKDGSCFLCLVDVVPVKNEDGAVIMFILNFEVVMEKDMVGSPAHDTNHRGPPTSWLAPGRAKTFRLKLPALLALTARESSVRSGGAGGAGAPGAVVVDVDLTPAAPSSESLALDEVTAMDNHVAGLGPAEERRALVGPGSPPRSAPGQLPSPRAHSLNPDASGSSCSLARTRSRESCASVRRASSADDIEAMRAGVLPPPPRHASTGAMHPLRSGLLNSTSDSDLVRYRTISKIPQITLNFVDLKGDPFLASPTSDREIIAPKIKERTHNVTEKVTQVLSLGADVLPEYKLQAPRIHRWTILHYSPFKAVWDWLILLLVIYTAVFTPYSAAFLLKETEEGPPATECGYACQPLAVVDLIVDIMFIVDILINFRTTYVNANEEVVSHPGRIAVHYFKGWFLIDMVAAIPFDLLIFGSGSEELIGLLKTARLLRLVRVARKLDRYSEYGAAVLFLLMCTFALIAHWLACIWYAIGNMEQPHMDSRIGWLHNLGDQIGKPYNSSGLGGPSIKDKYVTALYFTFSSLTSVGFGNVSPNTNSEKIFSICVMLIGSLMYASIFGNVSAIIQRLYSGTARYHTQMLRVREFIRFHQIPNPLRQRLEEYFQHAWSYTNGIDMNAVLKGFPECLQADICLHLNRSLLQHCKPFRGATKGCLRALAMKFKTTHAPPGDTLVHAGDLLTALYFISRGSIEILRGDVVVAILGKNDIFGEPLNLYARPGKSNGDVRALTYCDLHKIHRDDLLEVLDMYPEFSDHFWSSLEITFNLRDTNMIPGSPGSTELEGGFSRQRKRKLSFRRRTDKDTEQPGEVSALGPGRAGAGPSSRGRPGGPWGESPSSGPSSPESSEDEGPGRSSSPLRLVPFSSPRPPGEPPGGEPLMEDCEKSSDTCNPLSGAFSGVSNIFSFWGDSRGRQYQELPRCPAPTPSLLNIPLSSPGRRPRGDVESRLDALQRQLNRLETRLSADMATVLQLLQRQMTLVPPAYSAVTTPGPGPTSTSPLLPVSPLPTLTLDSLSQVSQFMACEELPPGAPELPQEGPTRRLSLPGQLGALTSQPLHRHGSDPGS

[8] = target: Vasopressin V1a receptor (Mus musculus) (UniProt Q62463); assay: In vivo antagonist activity at vasopressin V1a receptor in male NMRI mouse assessed as inhibition of oxytocin-induced scratching behavior at 3 mg/kg, po pretreated with compound for 60 mins followed by oxytocin administration and measured after 1 hrs relative to control; type: functional, organism-based; settings: time 120.0 min
Vasopressin V1a receptor (Mus musculus), sequence (Q62463 whole entry, looked up): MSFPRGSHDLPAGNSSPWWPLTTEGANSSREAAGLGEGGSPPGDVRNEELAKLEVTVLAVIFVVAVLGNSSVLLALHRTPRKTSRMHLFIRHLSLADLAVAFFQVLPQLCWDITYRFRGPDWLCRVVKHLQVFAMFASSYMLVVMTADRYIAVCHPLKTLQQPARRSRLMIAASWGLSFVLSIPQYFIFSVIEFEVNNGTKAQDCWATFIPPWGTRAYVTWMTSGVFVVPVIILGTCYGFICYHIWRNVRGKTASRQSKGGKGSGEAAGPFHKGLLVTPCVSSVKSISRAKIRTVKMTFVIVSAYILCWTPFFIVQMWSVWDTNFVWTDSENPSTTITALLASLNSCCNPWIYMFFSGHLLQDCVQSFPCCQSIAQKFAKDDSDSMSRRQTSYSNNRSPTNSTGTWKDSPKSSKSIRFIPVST

[9] = target: Vasopressin V1a receptor (Mus musculus, UniProt Q62463); assay: Displacement of [3H]AVP from mouse vasopressin V1a receptor expressed in human 1321N1 cells assessed as inhibition constant; type: cell-based
Vasopressin V1a receptor (Mus musculus, UniProt Q62463), sequence (Q62463 whole entry): as the sequence (Q62463 whole entry, looked up) above

[10] = target: Vasopressin V1a receptor (Mus musculus) (UniProt Q62463); assay: In vivo antagonist activity at vasopressin V1a receptor in male NMRI mouse assessed as inhibition of oxytocin-induced scratching behavior at 1 mg/kg, po pretreated with compound for 60 mins followed by oxytocin administration and measured after 1 hrs relative to control; type: functional, organism-based; settings: time 120.0 min
[11] = target: T1, Vasopressin V1a receptor; assay: Displacement of [3H]AVP from human vasopressin V1a receptor expressed in human 1321N1 cells; type: cell-based
[12] = target: Vasopressin V1a receptor (Mus musculus) (UniProt Q62463); assay: In vivo antagonist activity at vasopressin V1a receptor in male NMRI mouse assessed as inhibition of oxytocin-induced scratching behavior at 0.3 mg/kg, po pretreated with compound for 60 mins followed by oxytocin administration and measured after 1 hrs relative to control; type: functional, organism-based; settings: time 120.0 min
[13] = target: Vasopressin V1a receptor (Mus musculus) (UniProt Q62463); assay: In vivo antagonist activity at vasopressin V1a receptor in male NMRI mouse assessed as inhibition of oxytocin-induced scratching behavior at 0.1 mg/kg, po pretreated with compound for 60 mins followed by oxytocin administration and measured after 1 hrs relative to control; type: functional, organism-based; settings: time 120.0 min

T1 sequence (P37288 whole entry): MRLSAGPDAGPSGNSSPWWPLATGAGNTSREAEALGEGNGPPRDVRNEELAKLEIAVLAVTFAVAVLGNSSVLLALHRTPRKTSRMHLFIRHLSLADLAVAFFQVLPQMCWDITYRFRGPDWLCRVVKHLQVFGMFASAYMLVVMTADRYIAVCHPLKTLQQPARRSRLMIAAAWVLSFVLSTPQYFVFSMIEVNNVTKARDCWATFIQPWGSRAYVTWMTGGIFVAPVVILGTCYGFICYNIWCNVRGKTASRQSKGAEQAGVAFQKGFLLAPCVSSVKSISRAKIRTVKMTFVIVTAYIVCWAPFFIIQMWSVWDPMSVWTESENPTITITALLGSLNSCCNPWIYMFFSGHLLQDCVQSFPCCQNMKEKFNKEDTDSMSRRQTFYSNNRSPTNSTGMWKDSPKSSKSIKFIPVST

Row | SMILES | Ki [1] [nM] | microsomal CLint at 1 µM [2] [µL/min/mg] | Ki [3] [nM] | microsomal CLint at 1 µM [4] [µL/min/mg] | microsomal CLint at 1 µM [5] [µL/min/mg] | Papp A→B [6] [×10⁻⁶ cm/s] | inhibition [8] [%] | Ki [9] [nM] | inhibition [10] [%] | IC50 [11] [nM] | inhibition [12] [%] | inhibition [13] [%] | IC50 [7] [nM]
1 | Clc1ccc2c(c1)CC1(Cc3nnc(N4CCC(N5CCCCC5)CC4)n3-2)OCCO1 | 2.04 | 0.2 | 998 | 1.15 | 1.15 | 2.4 |  |  |  |  |  |  | 
2 | NC(=O)C1Cc2cc(Cl)ccc2-n2c(nnc2N2CCC(Oc3ccccn3)CC2)C1 (stereo not given) | 1.4 | 0.5 | 3620 | 7.6 | 6.2 |  |  |  |  |  |  |  | 
3 | NC(=O)C1Cc2cc(Cl)ccc2-n2c(nnc2N2CCC(N3CCCCC3)CC2)C1 (stereo not given) | 98 | 0.2 |  | 0.2 | 0.2 |  |  |  |  |  |  |  | 
4 | Clc1ccc2c(c1)CC1(Cc3nnc(C4CCN(c5cccc6c5CCO6)CC4)n3-2)OCCO1 | 0.3 |  | 26 |  |  |  |  |  |  |  |  |  | 
5 | Clc1ccc2c(c1)CC1(Cc3nnc(N4CCN(c5nccc6ccoc56)CC4)n3-2)OCCO1 | 0.28 | 18 | 21 | 110 | 44.6 |  |  |  |  |  |  |  | 
6 | Clc1ccc2c(c1)CC1(Cc3nnc(C4CCN(c5cccc6c5COC6)CC4)n3-2)OCCO1 | 0.21 |  | 26 |  |  |  |  |  |  |  |  |  | 
7 | NC(=O)C1Cc2cc(Cl)ccc2-n2c(nnc2N2CCC3(CC2)OCc2ccccc23)C1 (stereo not given) | 2.1 |  | 327 |  |  |  |  |  |  |  |  |  | 
8 | Clc1ccc2c(c1)CC1(Cc3nnc([C@H]4CC[C@H](Oc5ccccn5)CC4)n3-2)OCCO1 |  | 13 |  | 28 | 25 | 59.3 | 80 |  | 86 |  | 42 |  | 9100
9 | Cc1nc2c([nH]1)-c1ccccc1N(C(=O)c1ccc(NC(=O)c3ccccc3-c3ccccc3)cc1)CC2 [CONIVAPTAN] |  |  |  |  |  | 2.9 |  |  |  |  |  |  | > 5000
10 | CC1(C)Cc2cccc(N3CCN(c4nnc5n4-c4ccc(Cl)cc4CC4(C5)OCCO4)CC3)c2O1 | 0.82 | 107 | 24 | 113 | 99.5 |  |  |  |  |  |  |  | 
11 | COC1(c2ccccc2)CCN(c2nnc3n2-c2ccc(Cl)cc2CC(C(N)=O)C3)CC1 (stereo not given) | 1.3 | 3 | 1610 | 7.1 | 13.9 |  |  |  |  |  |  |  | 
12 | NC(=O)C1Cc2cc(Cl)ccc2-n2c(nnc2N2CCN(c3cccc(Cl)c3)CC2)C1 (stereo not given) | 7.7 | 3.7 | 259 | 7 | 9.2 |  |  |  |  |  |  |  | 
13 | Cc1ccccc1C(=O)Nc1ccc(C(=O)N2CCCC(O)c3cc(Cl)ccc32)c(C)c1 (stereo not given) [TOLVAPTAN] |  | 12 |  | 168 | 32 | 46.7 |  |  |  |  |  |  | 
14 | Clc1ccc2c(c1)CC1(Cc3nnc(N4CCC(Oc5ccccn5)CC4)n3-2)OCCO1 |  | 10.9 | 20 | 33.3 | 28.4 | 40.4 |  |  |  |  |  |  | 8200

Second part, led by results:

Row | Ki [1] [nM] | microsomal CLint at 1 µM [2] [µL/min/mg] | Ki [3] [nM] | microsomal CLint at 1 µM [4] [µL/min/mg] | microsomal CLint at 1 µM [5] [µL/min/mg] | Papp A→B [6] [×10⁻⁶ cm/s] | inhibition [8] [%] | Ki [9] [nM] | inhibition [10] [%] | IC50 [11] [nM] | inhibition [12] [%] | inhibition [13] [%] | SMILES | IC50 [7] [nM]
15 | 0.41 | 78.3 | 1.1 | 48.2 | 70.7 |  |  |  |  |  |  |  | Clc1ccc2c(c1)CC1(CCOCC1)Cc1nnc(N3CCN(c4cccc5c4OCC5)CC3)n1-2 | 
16 | 0.2 |  | 0.7 |  |  |  |  |  |  |  |  |  | Clc1ccc2c(c1)CC1(Cc3nnc(N4CCC(c5cccc6c5OCC6)CC4)n3-2)OCCO1 | 
17 | 0.35 |  | 9 |  |  |  |  |  |  |  |  |  | Cc1ccccc1C(=O)NC1CCN(c2nnc3n2-c2ccc(Cl)cc2CC2(C3)OCCO2)CC1 | 
18 | 0.2 |  | 4 |  |  |  |  |  |  |  |  |  | Clc1ccc2c(c1)CC1(Cc3nnc(C4CCN(c5cccc6c5OCC6)CC4)n3-2)OCCO1 | 
19 | 0.17 | 6.9 | 11 | 62.2 | 51.7 | 34 |  |  |  |  |  |  | COC1(c2ccccc2)CCN(c2nnc3n2-c2ccc(Cl)cc2CC2(C3)OCCO2)CC1 | 11000
20 |  | 9.1 | 4.7 | 25.4 | 21.7 | 39.9 |  |  |  |  |  |  | Clc1ccc2c(c1)CC1(Cc3nnc(N4CCN(c5ccccn5)CC4)n3-2)OCCO1 | 
21 | 0.25 |  | 13 |  |  |  |  |  |  |  |  |  | O=C1c2ccccc2CCN1C1CCN(c2nnc3n2-c2ccc(Cl)cc2CC2(C3)OCCO2)CC1 | 
22 | 0.5 | 5.8 | 0.7 | 28 | 23.3 |  | 104 | 0.4 | 83 | 5.7 | 69 |  | Cc1cccc(N2CCN(c3nnc4n3-c3ccc(Cl)cc3CC3(C4)OCCO3)CC2)c1C | 10000
23 | 0.25 | 8.8 | 0.8 | 31.7 | 25.1 | 31 |  |  |  |  |  |  | Clc1ccc2c(c1)CC1(Cc3nnc(N4CCN(c5cccc6c5OCO6)CC4)n3-2)OCCO1 | 11000
24 | 1.4 |  | 5.1 |  |  |  |  |  |  |  |  |  | Clc1ccc2c(c1)CC1(CCCO1)Cc1nnc(N3CCN(c4cccc5c4OCC5)CC3)n1-2 (stereo not given) | 
25 | 0.38 | 11.5 | 2.2 | 28.2 | 21.8 | 30 |  |  |  |  |  |  | Clc1ccc2c(c1)CC1(Cc3nnc(N4CCN(c5cccc6c5CCO6)CC4)n3-2)OCCO1 | 10000
26 |  | 12 | 1.6 | 166 | 194 |  |  |  |  |  |  |  | Clc1ccc2c(c1)CC1(Cc3nnc(N4CCC5(CC4)OCc4ccccc45)n3-2)OCCO1 | 
27 | 0.4 |  | 2 |  |  |  |  |  |  |  |  |  | COc1ccccc1N1CCN(c2nnc3n2-c2ccc(Cl)cc2CC2(C3)OCCO2)CC1 | 
28 | 0.2 |  | 0.9 |  |  |  |  |  |  |  |  |  | Clc1ccc2c(c1)CC1(Cc3nnc(N4CCC(c5cccc6c5OCO6)CC4)n3-2)OCCO1 | 
29 | 0.26 | 10.6 | 1.2 | 51 | 58.5 |  |  |  |  |  |  |  | Clc1ccc2c(c1)CC1(Cc3nnc(N4CCN(c5ncccc5Cl)CC4)n3-2)OCCO1 | 
30 | 0.14 | 24.3 | 6.5 | 141 | 83.3 |  |  |  |  |  |  |  | Clc1ccc2c(c1)CC1(Cc3nnc(N4CCN(c5nccc6ccsc56)CC4)n3-2)OCCO1 | 
31 | 0.13 | 15.9 | 0.53 | 36.9 | 27.1 | 30 | 86 | 0.5 | 91 | 2.2 | 85 | 81 | Clc1ccc2c(c1)CC1(Cc3nnc(N4CCN(c5cccc6c5OCC6)CC4)n3-2)OCCO1 | > 30000
32 | 0.65 | 5.1 | 13 | 14.5 | 9.1 |  |  |  |  |  |  |  | Cc1cccc(N2CCN(c3nnc4n3-c3ccc(Cl)cc3CC(C(N)=O)C4)CC2)c1C (stereo not given) | 
33 | 0.5 | 17 | 2.8 | 29.4 | 30.5 |  |  |  |  |  |  |  | Clc1ccc2c(c1)CC1(Cc3nnc(N4CCN(c5cccc6c5COC6)CC4)n3-2)OCCO1 | 7900
34 | 1.4 | 13.5 | 11 | 26.2 | 14.3 |  |  |  |  |  |  |  | OC1Cc2cc(Cl)ccc2-n2c(nnc2N2CCN(c3cccc4c3OCC4)CC2)C1 (stereo not given) | 
